Assay results from patent publication US12018021B2 (UCB Biopharma SRL, priority 2018, dated 2024).

Biological target: IgE-Tb / sFcεRIα-Y131A-AF488 (Homo sapiens, UniProt P01854, N146Q/N252Q)
Assay: IgE-Tb / sFcεRIα-Y131A-AF488 FRET assay (protocol for examples 234 to 501)
Type: binding
Conditions: examples 234 to 501: compound with IgE-Tb 30 minutes before sFcεRIα-Y131A-AF488, incubated 18 hours at room temperature; read-out: Y131A FRET IC50 range
Summary of the method: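 Read-out is the 520/490 nm emission ratio (337 nm excitation) after 18 h at room temperature, background subtracted, fitted four-parameter for IC50. Final reagents: 5 nM IgE-Tb, preincubated 30 min with compound (top typically 10 μM, 2% DMSO, 3-fold 10-point), plus 25 nM sFcεRIα-Y131A-AF488.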

IgE-Tb / sFcεRIα-Y131A-AF488, sequence (P01854 whole entry N146Q/N252Q): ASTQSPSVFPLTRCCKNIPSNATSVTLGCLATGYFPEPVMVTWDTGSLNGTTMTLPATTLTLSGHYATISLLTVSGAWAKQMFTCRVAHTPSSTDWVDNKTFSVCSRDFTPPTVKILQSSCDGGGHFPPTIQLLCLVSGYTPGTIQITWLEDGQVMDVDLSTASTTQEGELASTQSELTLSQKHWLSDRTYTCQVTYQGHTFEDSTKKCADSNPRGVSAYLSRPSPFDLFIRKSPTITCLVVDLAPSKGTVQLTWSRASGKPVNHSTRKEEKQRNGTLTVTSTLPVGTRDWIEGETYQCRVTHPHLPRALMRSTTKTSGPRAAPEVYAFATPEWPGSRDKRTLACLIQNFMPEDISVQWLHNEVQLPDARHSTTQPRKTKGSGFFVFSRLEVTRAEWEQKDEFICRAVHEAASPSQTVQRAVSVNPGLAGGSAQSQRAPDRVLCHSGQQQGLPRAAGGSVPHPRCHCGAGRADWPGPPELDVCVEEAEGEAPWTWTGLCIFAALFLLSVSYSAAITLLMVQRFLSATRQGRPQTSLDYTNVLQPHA

Question: With Cn1nc(OC(F)F)cc1Nc1nncn1[C@H]1CCc2sc(NC(=O)C3CC(F)(F)C3)c(C(=O)NCC3CC3)c2C1 [Example 346, (5S)—N-(cyclopropylmethyl)-2-[(3,3-difluorocyclobutanecarbonyl)amino]-5-[3-[[5-(difluoromethoxy)-2-methylpyrazol-3-yl]amino]-1,2,4-triazol-4-yl]-4,5,6,7-tetrahydro-1-benzothiophene-3-carboxamide] as the molecule, how does the IC50 read?
Answer: < 1 µM

Question: Cn1nc(OC(F)F)cc1Nc1nncn1[C@H]1CCc2sc(NC(=O)[C@H]3C[C@@H](F)C3)c(C(=O)NCC3CC3)c2C1 [Example 347, (5S)—N-(cyclopropylmethyl)-5-[3-[[5-(difluoromethoxy)-2-methylpyrazol-3-yl]amino]-1,2,4-triazol-4-yl]-2-[cis-(3-fluorocyclobutanecarbonyl)amino]-4,5,6,7-tetrahydro-1-benzothiophene-3-carboxamide] was tested. Which IC50 did it give?
Answer: < 1 µM

Question: Cn1nc(OC(F)F)cc1Nc1nncn1[C@H]1CCc2sc(NC(=O)C3CC3)c(C(=O)NCC3CC3)c2C1 [Example 351, (5S)-2-(cyclopropanecarbonylamino)-N-(cyclopropylmethyl)-5-[3-[[5-(difluoromethoxy)-2-methylpyrazol-3-yl]amino]-1,2,4-triazol-4-yl]-4,5,6,7-tetrahydro-1-benzothiophene-3-carboxamide] was tested. Which IC50 did it give?
Answer: < 1 µM

Question: For C[C@H]1C[C@@H]1C(=O)Nc1sc2c(c1C(=O)NCC1CC1)C[C@@H](n1cnnc1Nc1cc(OC(F)F)nn1C)CC2 [Example 352, (5S)—N-(cyclopropylmethyl)-5-[3-[[5-(difluoromethoxy)-2-methylpyrazol-3-yl]amino]-1,2,4-triazol-4-yl]-2-[[(1S,2S)-2-methylcyclopropanecarbonyl]amino]-4,5,6,7-tetrahydro-1-benzothiophene-3-carboxamide], which IC50 is on record?
Answer: < 1 µM

Question: Which IC50 does the source give for Cn1nc(C(F)F)cc1Nc1nncn1[C@H]1CCc2sc(NC(=O)C3CC(F)C3)c(C(=O)NCC3CC3)c2C1 (stereo partly drawn) [Example 353, (5S)—N-(cyclopropylmethyl)-5-[3-[[5-(difluoromethyl)-2-methylpyrazol-3-yl]amino]-1,2,4-triazol-4-yl]-2-[(3-fluorocyclobutanecarbonyl)amino]-4,5,6,7-tetrahydro-1-benzothiophene-3-carboxamide] here?
Answer: < 1 µM

Question: How did the IC50 turn out when Cn1nc(C(F)F)cc1Nc1nncn1[C@H]1CCc2sc(NC(=O)[C@H]3C[C@H](F)C3)c(C(=O)NCC3CC3)c2C1 [Example 354, (5S)—N-(cyclopropylmethyl)-5-[3-[[5-(difluoromethyl)-2-methylpyrazol-3-yl]amino]-1,2,4-triazol-4-yl]-2-[trans-(3-fluorocyclobutanecarbonyl)amino]-4,5,6,7-tetrahydro-1-benzothiophene-3-carboxamide] was run?
Answer: < 1 µM

Question: Which IC50 does the source give for Cn1nc(C(F)F)cc1Nc1nncn1[C@H]1CCc2sc(NC(=O)C3COC3)c(C(=O)NCC3CC3)c2C1 [Example 356, N-[(5S)-3-(cyclopropylmethylcarbamoyl)-5-[3-[[5-(difluoromethyl)-2-methylpyrazol-3-yl]amino]-1,2,4-triazol-4-yl]-4,5,6,7-tetrahydro-1-benzothiophen-2-yl]oxetane-3-carboxamide] here?
Answer: < 1 µM

Question: Which IC50 does the source give for Cn1nc(C(F)F)cc1Nc1nncn1[C@H]1CCc2sc(NC(=O)C3CC(F)(F)C3)c(C(=O)NCC3CC3)c2C1 [Example 357, (5S)—N-(cyclopropylmethyl)-2-[(3,3-difluorocyclobutanecarbonyl)amino]-5-[3-[[5-(difluoromethyl)-2-methylpyrazol-3-yl]amino]-1,2,4-triazol-4-yl]-4,5,6,7-tetrahydro-1-benzothiophene-3-carboxamide] here?
Answer: < 1 µM

Question: Cn1nc(C(F)F)cc1Nc1nncn1[C@H]1CCc2sc(NC(=O)CC(F)F)c(C(=O)NCC3CC3)c2C1 [Example 358, (5S)—N-(cyclopropylmethyl)-5-[3-[[5-(difluoromethyl)-2-methylpyrazol-3-yl]amino]-1,2,4-triazol-4-yl]-2-(3,3-difluoropropanoylamino)-4,5,6,7-tetrahydro-1-benzothiophene-3-carboxamide] was tested. Which IC50 did it give?
Answer: < 1 µM

Question: For Cn1nc(C(F)F)cc1Nc1nncn1[C@H]1CCc2sc(NC(=O)C3CCC3)c(C(=O)NCC3CC3)c2C1 [Example 359, (5S)-2-(cyclobutanecarbonylamino)-N-(cyclopropylmethyl)-5-[3-[[5-(difluoromethyl)-2-methylpyrazol-3-yl]amino]-1,2,4-triazol-4-yl]-4,5,6,7-tetrahydro-1-benzothiophene-3-carboxamide], which IC50 is on record?
Answer: < 1 µM

Question: With CC(C)C(=O)Nc1sc2c(c1C(=O)NCC1CC1)C[C@@H](n1cnnc1Nc1cc(C(F)F)nn1C)CC2 [Example 360, (5S)—N-(cyclopropylmethyl)-5-[3-[[5-(difluoromethyl)-2-methylpyrazol-3-yl]amino]-1,2,4-triazol-4-yl]-2-(2-methylpropanoylamino)-4,5,6,7-tetrahydro-1-benzothiophene-3-carboxamide] as the molecule, how does the IC50 read?
Answer: < 1 µM

Question: Cn1nc(C(F)F)cc1Nc1nncn1[C@H]1CCc2sc(NC(=O)[C@H]3C[C@@H]3F)c(C(=O)NCC3CC3)c2C1 [Example 368, (5S)—N-(cyclopropylmethyl)-5-[3-[[5-(difluoromethyl)-2-methyl-pyrazol-3-yl]amino]-1,2,4-triazol-4-yl]-2-[[(1R,2S)-2-fluorocyclopropanecarbonyl]amino]-4,5,6,7-tetrahydrobenzothiophene-3-carboxamide] was tested. Which IC50 did it give?
Answer: < 1 µM

Question: With Cn1nc(C(F)F)cc1Nc1nncn1[C@H]1CCc2sc(NC(=O)C3CC3)c(C(=O)N[C@H]3C[C@H](F)C3)c2C1 [Example 373, (5S)-2-(cyclopropanecarbonylamino)-5-[3-[[5-(difluoromethyl)-2-methylpyrazol-3-yl]amino]-1,2,4-triazol-4-yl]-N-(trans-3-fluorocyclobutyl)-4,5,6,7-tetrahydro-1-benzothiophene-3-carboxamide] as the molecule, how does the IC50 read?
Answer: < 1 µM

Question: For Cn1nc(OC(F)F)cc1Nc1nncn1[C@H]1CCc2sc(NC(=O)[C@H]3C[C@@H]3F)c(C(=O)NC[C@H]3C[C@H]3F)c2C1 [Example 380, (5S)-5-[3-[[5-(difluoromethoxy)-2-methylpyrazol-3-yl]amino]-1,2,4-triazol-4-yl]-2-[[(1R,2S)-2-fluorocyclopropanecarbonyl]amino]-N-[[(1R,2R)-2-fluorocyclopropyl]methyl]-4,5,6,7-tetrahydro-1-benzothiophene-3-carboxamide], which IC50 is on record?
Answer: < 1 µM

Question: Which IC50 does the source give for Cn1nc(C(F)F)cc1Nc1nncn1[C@H]1CCc2sc(NC(=O)C3CC3)c(C(=O)NC3CC(F)(F)C3)c2C1 [Example 387, (5S)-2-(cyclopropanecarbonylamino)-N-(3,3-difluorocyclobutyl)-5-[3-[[5-(difluoromethyl)-2-methylpyrazol-3-yl]amino]-1,2,4-triazol-4-yl]-4,5,6,7-tetrahydro-1-benzothiophene-3-carboxamide] here?
Answer: < 1 µM

Question: Which IC50 does the source give for Cn1nc(C(F)F)cc1Nc1nncn1[C@H]1CCc2sc(NC(=O)C3CC3)c(C(=O)N[C@H]3C[C@@H](F)C3)c2C1 [Example 388, (5S)-2-(cyclopropanecarbonylamino)-5-[3-[[5-(difluoromethyl)-2-methylpyrazol-3-yl]amino]-1,2,4-triazol-4-yl]-N-(cis-3-fluorocyclobutyl)-4,5,6,7-tetrahydro-1-benzothiophene-3-carboxamide] here?
Answer: < 1 µM

Question: How did the IC50 turn out when Cn1nc(C(F)F)cc1Nc1nncn1[C@H]1CCc2sc(NC(=O)C3CC3)c(C(=O)NCC3CC(F)(F)C3)c2C1 [Example 389, (5S)-2-(cyclopropanecarbonylamino)-N-[(3,3-difluorocyclobutyl)methyl]-5-[3-[[5-(difluoromethyl)-2-methylpyrazol-3-yl]amino]-1,2,4-triazol-4-yl]-4,5,6,7-tetrahydro-1-benzothiophene-3-carboxamide] was run?
Answer: < 1 µM

Question: CC1CC1CNC(=O)c1c(NC(=O)C2CC2F)sc2c1CC(n1cnnc1Nc1cc(C(F)(F)F)nn1C)CC2 [Example 390, (5S)-2-[[(1R,2R)-2-fluorocyclopropanecarbonyl]amino]-N-[[1RS,2RS)-2-methylcyclopropyl]methyl]-5-[3-[[2-methyl-5-(trifluoromethyl)pyrazol-3-yl]amino]-1,2,4-triazol-4-yl]-4,5,6,7-tetrahydro-1-benzothiophene-3-carboxamide (cis)] was tested. Which IC50 did it give?
Answer: < 1 µM

Question: With Cn1nc(C(F)(F)F)cc1Nc1nncn1[C@H]1CCc2sc(NC(=O)[C@H]3C[C@H]3F)c(C(=O)NC[C@@H]3C[C@@H]3F)c2C1 [Example 392, (5S)-2-[[(1R,2R)-2-fluorocyclopropanecarbonyl]amino]-N-[[(1S,2S)-2-fluorocyclopropyl]methyl]-5-[3-[[2-methyl-5-(trifluoromethyl)pyrazol-3-yl]amino]-1,2,4-triazol-4-yl]-4,5,6,7-tetrahydro-1-benzothiophene-3-carboxamide] as the molecule, how does the IC50 read?
Answer: < 1 µM

Question: Which IC50 does the source give for Cn1nc(C(F)(F)F)cc1Nc1nncn1[C@H]1CCc2sc(NC(=O)[C@H]3C[C@H]3F)c(C(=O)NC[C@H]3C[C@@H]3F)c2C1 [Example 395, (5S)-2-[[(1R,2R)-2-fluorocyclopropanecarbonyl]amino]-N-[[(1R,2S)-2-fluorocyclopropyl]methyl]-5-[3-[[2-methyl-5-(trifluoromethyl)pyrazol-3-yl]amino]-1,2,4-triazol-4-yl]-4,5,6,7-tetrahydro-1-benzothiophene-3-carboxamide] here?
Answer: < 1 µM

Question: Which IC50 does the source give for Cn1nc(C(F)(F)F)cc1Nc1nncn1[C@H]1CCc2sc(NC(=O)[C@H]3C[C@H]3F)c(C(=O)NC[C@H]3C[C@H]3F)c2C1 [Example 399, (5S)-2-[[(1R,2R)-2-fluorocyclopropanecarbonyl]amino]-N-[[(1R,2R)-2-fluorocyclopropyl]methyl]-5-[3-[[2-methyl-5-(trifluoromethyl)pyrazol-3-yl]amino]-1,2,4-triazol-4-yl]-4,5,6,7-tetrahydro-1-benzothiophene-3-carboxamide] here?
Answer: < 1 µM

Question: For Cn1nc(C(F)(F)F)cc1Nc1nncn1[C@H]1CCc2sc(NC(=O)[C@@H]3C[C@@H]3F)c(C(=O)NCC3CC3)c2C1 [Example 401], which IC50 is on record?
Answer: < 1 µM
